pEC50, pIC50, pKi: −log10 of the molar value.
Key:
[1] = system: NB-4; test: Cell viability (CellTiter-Glo); assay type: cell-based, Human; conditions: Homo sapiens, NB-4, 72 h, read-out: NB-4 Viability 72 h IC50
Description: The compound 18a was tested in 16 different cell lines. For 6-day compound treatment 1700 cells per well were plated in a 384-well plate (Corning #781098) and incubated overnight at 37° C./5% CO2. […] Afterwards, 20 μL CellTiter-Glo reagent (Promega, #G7570) was added to each well outside of the incubator and the plates were read for luminescence on a Spark® multimode microplate reader (Tecan). Data was fit in GraphPad Prism 8 to a nonlinear regression curve to determine the IC50 of the compounds. […]

[2] = system: MOLM 13; test: Cell viability (CellTiter-Glo), 6-day compound treatment; assay type: cell-based, Human; conditions: Homo sapiens, MOLM-13, 144 h, read-out: MOLM 13 Viability 6 d IC50
Description: The compound 18a was tested in 16 different cell lines. For 6-day compound treatment 1700 cells per well were plated in a 384-well plate (Corning #781098) and incubated overnight at 37° C./5% CO2. The following day, compounds in 10-fold dilutions were added to the plates and the plates were incubated for 6 days. Afterwards, 20 μL CellTiter-Glo reagent (Promega, #G7570) was added to each well outside of the incubator and the plates were read for luminescence on a Spark® multimode microplate reader (Tecan). Data was fit in GraphPad Prism 8 to a nonlinear regression curve to determine the IC50 of the compounds. […]

[3] = system: SKOV-3; test: Cell viability (CellTiter-Glo), 48 hrs; assay type: cell-based; conditions: Homo sapiens, SK-OV-3, 48 h, read-out: SKOV-3 Viability 48 h IC50
Description: One thousand seven hundred cells per well were plated in a 384 well plate and incubated overnight at 37° C./5% CO2. The following day, compounds in 10-fold dilutions were added to the plates and the plates returned to the incubator for 48 hrs. 48 hrs later, plates were removed to the bench and 20 μL CellTiter-Glo reagent was added to each well and the plates were read for luminescence on a Spark® multimode microplate reader (Tecan). Data were fit using PRISM to a nonlinear regression curve to determine the IC50 of the compounds.

[4] = biological target: BIR3 domain of cIAP1 (Homo sapiens, UniProt Q13490); test: Fluorescence polarization assay; assay type: binding; conditions: SMAC-FITC probe, Ki calculated from IC50
Description: Binding of compounds to ML-IAP and BIR3 domain of cIAP1, cIAP2 and XIAP was determined by fluorescence polarization. Assay buffer was 100 mM KH2PO4 at pH 7.5, 50 μM ZnSO4, 1 mM TCEP (Tris(2-carboxyethyl)phosphine hydrochloride) and 50 nM SMAC-FITC probe (AbuRPF-K(5-Fam)-NH2) as described by Z. Nikolovska-Coleska et al.^9. cIAP1 and XIAP were present at 800 nM while cIAP2 and MLIAP were present at 1.5 μM. Compounds in 3-fold dilutions were added to the plates ranging from 30 μM to 1.5 nM. Assays were run in 384-well black plates read (Greiner Bio-One #784076) in an Analyst in fluorescence polarization mode with excitation at 485 nm and emission at 535 nm. Data was fit to a nonlinear regression curve in GraphPad Prism 8 to determine the IC50 values of the compounds. Ki's were then calculated from the IC50 values using equation: Ki=[I]50/([L]50/Kd+[P]0/Kd+1) formulated by Z. Nikolovska-Coleska et al.

[5] = system: latently infected cell line Jurkat 2D10; test: HIV Jurkat 2D10 cells GFP+ assay (reversal of HIV latency); assay type: cell-based; conditions: Homo sapiens, Jurkat, 48 h, read-out: Jurkat 2D10 GFP+ EC50
Description: Several compounds (Table 5) were tested for their efficacy in the reversal of HIV latency in the latently infected cell line Jurkat 2D10. Jurkat 2D10 cells were treated with different doses of the compounds, or one of the following compounds: BV-6, SM-164, Birinapant, LCL-161, GDC-0152, AT-406 for 48 hours. Reversal of HW latency was evaluated by analyzing GFP expression using flow cytometry. Induction of GFP expression was compared to baseline GFP levels detected in the absence of treatment.

Chain of BIR3 domain of cIAP1 (Q13490 253-363 limits assumed): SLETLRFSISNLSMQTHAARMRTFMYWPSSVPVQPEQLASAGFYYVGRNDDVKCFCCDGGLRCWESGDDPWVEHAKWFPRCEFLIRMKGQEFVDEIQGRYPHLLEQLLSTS

CN[C@@H](C)C(=O)N[C@H]1CCS[C@H]2CC(C)(C)[C@@H](C(=O)N[C@H]3c4ccccc4C[C@H]3OCC#Cc3cccc(C#CCO[C@@H]4Cc5ccccc5[C@@H]4NC(=O)[C@H]4N5C(=O)[C@@H](NC(=O)[C@H](C)NC)CCS[C@H]5CC4(C)C)c3)N2C1=O [Compound 18d]
pIC50 [1]: > 8.00 | pIC50 [2]: 6.00 to 7.00 | pIC50 [3]: > 8.00 | pKi [4]: ≥ 7.30 | pEC50 [5]: > 9.00

CN[C@@H](C)C(=O)N[C@H]1CCS[C@H]2CC(C)(C)[C@@H](C(=O)N[C@H]3c4ccccc4C[C@H]3OCCS(=O)(=O)CCO[C@@H]3Cc4ccccc4[C@@H]3NC(=O)[C@H]3N4C(=O)[C@@H](NC(=O)[C@H](C)NC)CCS[C@H]4CC3(C)C)N2C1=O [Compound 18h, (2S)-1-{[(4S,7S,9aS)-7-{[(1S,2R)-2-{2-[(2-{[(1S,2R)-1-({[(4S,7S,9aS)-8,8-Dimethyl-4-{[(2S)-2-(methylammonio)propanoyl]amino}-5-oxooctahydropyrrolo[2,1-b][1,3]thiazepin-7-yl]carbonyl}amino)-2,3-dihydro-1H-inden-2-yl]oxy}ethyl)sulfonyl]ethoxy}-2,3-dihydro-1H-inden-1-yl]carbamoyl}-8,8-dimethyl-5-oxooctahydropyrrolo[2,1-b][1,3]thiazepin-4-yl]amino}-N-methyl-1-oxopropan-2-ammonium dichloride]
pIC50 [1]: > 8.00 | pIC50 [3]: 7.00 to 8.00 | pKi [4]: ≥ 7.30 | pEC50 [5]: 7.00 to 8.00

CN[C@@H](C)C(=O)N[C@H]1CCS[C@H]2CC(C)(C)[C@@H](C(=O)N[C@H]3c4ccccc4C[C@H]3OCC#CCO[C@@H]3Cc4ccccc4[C@@H]3NC(=O)[C@H]3N4C(=O)[C@@H](NC(=O)[C@H](C)NC)CCS[C@H]4CC3(C)C)N2C1=O [Compound 18j]
pIC50 [1]: > 8.00 | pIC50 [2]: 5.00 to 6.00 | pIC50 [3]: 7.00 to 8.00 | pKi [4]: ≥ 7.30 | pEC50 [5]: 5.00 to 6.00

CN[C@@H](C)C(=O)N[C@H]1CCS[C@H]2CC3(CCCC3)[C@@H](C(=O)N[C@H]3c4ccccc4C[C@H]3OCC#CC#CCO[C@@H]3Cc4ccccc4[C@@H]3NC(=O)[C@H]3N4C(=O)[C@@H](NC(=O)[C@H](C)NC)CCS[C@H]4CC34CCCC4)N2C1=O [Compound 18r]
pEC50 [5]: 7.00 to 8.00

CN[C@@H](C)C(=O)N[C@H]1CCS[C@H]2C[C@H](O)[C@@H](C(=O)N[C@H]3c4ccccc4C[C@H]3OCC#CC#CCO[C@@H]3Cc4ccccc4[C@@H]3NC(=O)[C@@H]3[C@@H](O)C[C@@H]4SCC[C@H](NC(=O)[C@H](C)NC)C(=O)N43)N2C1=O [Compound 18p, [(1S)-1-{[(4S,7S,8S,9aS)-7-{[(1S,2R)-2-[(6-{[(1S,2R)-1-[(4S,7S,8S,9aS)-8-Hydroxy-4-[(2S)-2-(methylazaniumyl)propanamido]-5-oxo-octahydropyrrolo[2,1-b][1,3]thiazepine-7-amido]-2,3-dihydro-1H-inden-2-yl]oxy}hexa-2,4-diyn-1-yl)oxy]-2,3-dihydro-1H-inden-1-yl]carbamoyl}-8-hydroxy-5-oxo-octahydropyrrolo[2,1-b][1,3]thiazepin-4-yl]carbamoyl}ethyl](methyl)azanium dichloride]
pEC50 [5]: 6.00 to 7.00

C=CCC1(CC=C)C[C@@H]2SCC[C@H](NC(=O)[C@H](C)NC)C(=O)N2[C@@H]1C(=O)N[C@H]1c2ccccc2C[C@H]1OCC#CC#CCO[C@@H]1Cc2ccccc2[C@@H]1NC(=O)[C@H]1N2C(=O)[C@@H](NC(=O)[C@H](C)NC)CCS[C@H]2CC1(CC=C)CC=C [Compound 18n, (2S)-2-{[(4S,7S,9aS)-7-{[(1S,2R)-2-[(6-{[(1S,2R)-1-[(4S,7S,9aS)-4-[(2S)-2-(Methylamino)propanamido]-5-oxo-8,8-bis(prop-2-en-1-yl)-octahydropyrrolo[2,1-b][1,3]thiazepine-7-amido]-2,3-dihydro-1H-inden-2-yl]oxy}hexa-2,4-diyn-1-yl)oxy]-2,3-dihydro-1H-inden-1-yl]carbamoyl}-5-oxo-8,8-bis(prop-2-en-1-yl)-octahydropyrrolo[2,1-b][1,3]thiazepin-4-yl]carbamoyl}-2-(methylazaniumyl)ethanide dichloride]
pIC50 [2]: 6.00 to 7.00 | pIC50 [3]: 7.00 to 8.00 | pKi [4]: 7.00 to 7.30 | pEC50 [5]: 7.00 to 8.00

CNC(C)(C)C(=O)N[C@H]1CCS[C@H]2CC(C)(C)[C@@H](C(=O)N[C@H]3c4ccccc4C[C@H]3OCC#CC#CCO[C@@H]3Cc4ccccc4[C@@H]3NC(=O)[C@H]3N4C(=O)[C@@H](NC(=O)C(C)(C)NC)CCS[C@H]4CC3(C)C)N2C1=O [Compound 18k, 1-{[(4S,7S,9aS)-7-({(1S,2R)-2-[(6-{[(1S,2R)-1-({[(4S,7S,9aS)-8,8-Dimethyl-4-{[2-methyl-2-(methylammonio)propanoyl]amino}-5-oxooctahydropyrrolo[2,1-b][1,3]thiazepin-7-yl]carbonyl}amino)-2,3-dihydro-1H-inden-2-yl]oxy}hexa-2,4-diyn-1-yl)oxy]-2,3-dihydro-1H-inden-1-yl}carbamoyl)-8,8-dimethyl-5-oxooctahydropyrrolo[2,1-b][1,3]thiazepin-4-yl]amino}-N,2-dimethyl-1-oxopropan-2-ammonium dichloride]
pIC50 [1]: 7.00 to 8.00 | pIC50 [2]: 5.00 to 6.00 | pIC50 [3]: 6.00 to 7.00 | pKi [4]: 7.00 to 7.30 | pEC50 [5]: < 5.00

CN[C@@H](C)C(=O)N[C@H]1CCS[C@H]2CC(C)(C)[C@@H](C(=O)N[C@H]3c4ccccc4C[C@H]3OCc3ccc(-c4ccc(CO[C@@H]5Cc6ccccc6[C@@H]5NC(=O)[C@H]5N6C(=O)[C@@H](NC(=O)[C@H](C)NC)CCS[C@H]6CC5(C)C)cc4)cc3)N2C1=O [Compound 18f, (2S)-1-{[(4S,7S,9aS)-7-{[(1S,2R)-2-({4-[4-({[(1S,2R)-1-({[(4S,7S,9aS)-8,8-Dimethyl-4-{[(2S)-2-(methylammonio)propanoyl]amino}-5-oxooctahydropyrrolo[2,1-b][1,3]thiazepin-7-yl]carbonyl}amino)-2,3-dihydro-1H-inden-2-yl]oxy}methyl)phenyl]benzyl}oxy)-2,3-dihydro-1H-inden-1-yl]carbamoyl}-8,8-dimethyl-5-oxooctahydropyrrolo[2,1-b][1,3]thiazepin-4-yl]amino}-N-methyl-1-oxopropan-2-ammonium dichloride]
pIC50 [1]: > 8.00 | pIC50 [2]: 6.00 to 7.00 | pIC50 [3]: > 8.00 | pKi [4]: 7.00 to 7.30 | pEC50 [5]: 8.00 to 9.00

CN[C@@H](C)C(=O)N[C@H]1CCS[C@H]2CC(C)(C)[C@@H](C(=O)N[C@H](CCC(=O)NCCNC(=O)CC[C@@H](NC(=O)[C@H]3N4C(=O)[C@@H](NC(=O)[C@H](C)NC)CCS[C@H]4CC3(C)C)c3ccccc3)c3ccccc3)N2C1=O [Compound 18l, (2S)-1-{[(4S,7S,9aS)-74{(1R)-4-[(2-{[(4R)-4-({[(4S,7S,9aS)-8,8-Dimethyl-4-{[(2S)-2-(methylammonio)propanoyl]amino}-5-oxooctahydropyrrolo[2,1-b][1,3]thiazepin-7-yl]carbonyl}amino)-4-phenylbutanoyl]amino}ethyl)amino]-4-oxo-1-phenylbutyl}carbamoyl)-8,8-dimethyl-5-oxooctahydropyrrolo[2,1-b][1,3]thiazepin-4-yl]amino}-N-methyl-1-oxopropan-2-ammonium dichloride]
pIC50 [1]: 7.00 to 8.00 | pIC50 [3]: 6.00 to 7.00 | pKi [4]: ≥ 7.30 | pEC50 [5]: 6.00 to 7.00
